Biological target: (recombinant) catalytic domain of human Bub1 (amino acids 704-1085) (Homo sapiens (Human), UniProt O43683)
Test: Bub1 kinase assay (TR-FRET)
Format: biochemical
Details: ATP 10 μM final, peptide substrate 1 μM final, 60 min at 22° C., read-out: Biological Assay: Bub1 kinase assay median IC50
In short: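 Compounds were serially diluted 1:3.4 from 2 mM DMSO stocks and incubated with the enzyme reaction for 60 min at 22° C. The reaction was stopped with EDTA, and biotinylated peptide phosphorylation was read by TR-FRET using Eu anti-mouse IgG, anti-phosphoserine antibody and streptavidin-XL665. IC50 was fitted by 4-parameter logistic to inhibition normalized to no-inhibitor and no-enzyme controls.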

Sequence of (recombinant) catalytic domain of human Bub1 (amino acids 704-1085) (O43683 704-1085): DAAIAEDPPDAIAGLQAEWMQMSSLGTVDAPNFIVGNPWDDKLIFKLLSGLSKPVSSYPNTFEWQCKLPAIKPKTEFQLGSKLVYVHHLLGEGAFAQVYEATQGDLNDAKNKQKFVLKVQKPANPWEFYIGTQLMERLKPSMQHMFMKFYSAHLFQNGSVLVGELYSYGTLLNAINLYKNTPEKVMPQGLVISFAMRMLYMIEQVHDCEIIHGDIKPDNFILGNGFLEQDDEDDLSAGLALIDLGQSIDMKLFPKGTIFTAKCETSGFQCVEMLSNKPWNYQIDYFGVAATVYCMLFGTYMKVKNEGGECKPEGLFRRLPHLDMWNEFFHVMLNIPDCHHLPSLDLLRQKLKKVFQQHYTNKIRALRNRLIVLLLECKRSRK

Compound | IC50 [µM]
Cn1nccc1CC(=O)Nc1cc(-c2[nH]c3c(c2Nc2ccccc2)C(=O)CCC3)ccn1 [Example 292, 2-(1-methyl-1H-pyrazol-5-yl)-N-{4-[4-oxo-3-(phenylamino)-4,5,6,7-tetrahydro-1H-indol-2-yl]pyridin-2-yl}acetamide] | 0.34
CCO/N=C1\CC(C)(C)Cc2[nH]c(-c3ccncc3)c(Nc3ccccc3)c21 [Example 491, 4-(ethoxyimino)-6,6-dimethyl-N-phenyl-2-(pyridin-4-yl)-4,5,6,7-tetrahydro-1H-indol-3-amine] | 1.24
Nc1cc(-c2[nH]c3c(c2Nc2ccc(F)c(F)c2)C(=O)CCC3)ccn1 [Example 212, 2-(2-aminopyridin-4-yl)-3-[(3,4-difluorophenyl)amino]-1,5,6,7-tetrahydro-4H-indol-4-one] | 0.22
CC1(C)CC(=O)c2c([nH]c(-c3ccncc3F)c2Nc2ccccc2)C1 [Example 30, 2-(3-fluoropyridin-4-yl)-6,6-dimethyl-3-(phenylamino)-1,5,6,7-tetrahydro-4H-indol-4-one] | 0.00569
Cn1ccc(C(=O)Nc2cc(-c3[nH]c4c(c3Nc3ccccc3)C(=O)CC(C)(C)C4)ccn2)n1 [Example 504, N-{4-[6,6-dimethyl-4-oxo-3-(phenylamino)-4,5,6,7-tetrahydro-1H-indol-2-yl]pyridin-2-yl}-1-methyl-1H-pyrazole-3-carboxamide] | 0.00614
Cc1cc(OCC(=O)Nc2cc(-c3[nH]c4c(c3Nc3ccccc3)C(=O)CCC4)ccn2)no1 [Example 346, 2-[(5-methyl-1,2-oxazol-3-yl)oxy]-N-{4-[4-oxo-3-(phenylamino)-4,5,6,7-tetrahydro-1H-indol-2-yl]pyridin-2-yl}acetamide] | 0.00988
CC1(C)CC(=O)c2c([nH]c(-c3ccnc(NCCCCc4ccccc4)c3)c2Nc2ccccc2)C1 [Example 507, 6,6-dimethyl-3-(phenylamino)-2-{2-[(4-phenylbutyl)amino]pyridin-4-yl}-1,5,6,7-tetrahydro-4H-indol-4-one] | 0.959
CC1(C)CC(=O)c2c([nH]c(-c3ccncc3)c2Nc2ccc3ccsc3c2)C1 [Example 130, 3-(1-benzothiophen-6-ylamino)-6,6-dimethyl-2-(pyridin-4-yl)-1,5,6,7-tetrahydro-4H-indol-4-one] | 0.0581
Cc1cc(-c2[nH]c3c(c2Nc2ccccc2)C(=O)CC(C)(C)C3)cc(C)n1 [Example 209, 2-(2,6-dimethylpyridin-4-yl)-6,6-dimethyl-3-(phenylamino)-1,5,6,7-tetrahydro-4H-indol-4-one] | 3.12
CC1(C)CC(=O)c2c([nH]c(-c3ccncc3)c2Nc2ccccc2-c2ccccc2)C1 [Example 160, 3-(biphenyl-2-ylamino)-6,6-dimethyl-2-(pyridin-4-yl)-1,5,6,7-tetrahydro-4H-indol-4-one] | 0.204
Cn1cc(Nc2cc(-c3[nH]c4c(c3Nc3ccccc3)C(=O)CC(C)(C)C4)ccn2)cn1 [Example 205, 6,6-dimethyl-2-{2-[(1-methyl-1H-pyrazol-4-yl)amino]pyridin-4-yl}-3-(phenylamino)-1,5,6,7-tetrahydro-4H-indol-4-one] | 0.0229
CC1(C)CC(=O)c2c([nH]c(-c3ccnc(NCCc4ccccc4)c3)c2Nc2ccccc2)C1 [Example 498, 6,6-dimethyl-3-(phenylamino)-2-{2-[(2-phenylethyl)amino]pyridin-4-yl}-1,5,6,7-tetrahydro-4H-indol-4-one] | 1.26
O=C1CCCc2[nH]c(-c3ccnc(NC(=S)NCC(F)(F)F)c3)c(Nc3ccccc3)c21 [Example 394, 1-{4-[4-oxo-3-(phenylamino)-4,5,6,7-tetrahydro-1H-indol-2-yl]pyridin-2-yl}-3-(2,2,2-trifluoroethyl)thiourea] | 1.15
CC1CC(=O)c2c([nH]c(-c3ccncc3)c2Nc2ccccc2)C1 (stereo not drawn) [Example 22, 6-methyl-3-(phenylamino)-2-(pyridin-4-yl)-1,5,6,7-tetrahydro-4H-indol-4-one] | 0.0105
CC1(C)CC(=O)c2c([nH]c(-c3ccnc(N)c3)c2Nc2ccccc2)C1 [Example 122, 2-(2-aminopyridin-4-yl)-6,6-dimethyl-3-(phenylamino)-1,5,6,7-tetrahydro-4H-indol-4-one] | 0.058
COc1ccccc1Nc1c(-c2ccncc2)[nH]c2c1C(=O)CC(C)(C)C2 [Example 124, 3-[(2-methoxyphenyl)amino]-6,6-dimethyl-2-(pyridin-4-yl)-1,5,6,7-tetrahydro-4H-indol-4-one] | 0.154
O=C(Nc1cc(-c2[nH]c3c(c2Nc2ccccc2)C(=O)CCC3)ccn1)c1ccc(F)cc1 [Example 266, 4-fluoro-N-{4-[4-oxo-3-(phenylamino)-4,5,6,7-tetrahydro-1H-indol-2-yl]pyridin-2-yl}benzamide] | 0.0138
CC1(C)CC(=O)c2c([nH]c(-c3ccnc(NCC(F)(F)F)c3)c2Nc2ccccc2)C1 [Example 361, 6,6-dimethyl-3-(phenylamino)-2-{2-[(2,2,2-trifluoroethyl)amino]pyridin-4-yl}-1,5,6,7-tetrahydro-4H-indol-4-one] | 0.6

Compound | IC50 [µM]
CC1(C)CC(=O)c2c([nH]c(-c3ccncc3)c2Nc2ccccc2C(N)=O)C1 [Example 429, 2-{[6,6-dimethyl-4-oxo-2-(pyridin-4-yl)-4,5,6,7-tetrahydro-1H-indol-3-yl]amino}benzamide] | 0.0709
CC1(C)CC(=O)c2c([nH]c(-c3ccncc3)c2Nc2ccnc3ccccc23)C1 [Example 75, 6,6-dimethyl-2-(pyridin-4-yl)-3-(quinolin-4-ylamino)-1,5,6,7-tetrahydro-4H-indol-4-one] | 14.1
CC1(C)CC(=O)c2c([nH]c(-c3ccncc3)c2Nc2cccc(-c3cccs3)c2)C1 [Example 420, 6,6-dimethyl-2-(pyridin-4-yl)-3-{[3-(thiophen-2-yl)phenyl]amino}-1,5,6,7-tetrahydro-4H-indol-4-one] | 0.0249
CC(=O)N(C)c1cc(-c2[nH]c3c(c2Nc2ccccc2)C(=O)CC(C)(C)C3)ccn1 [Example 240, N-{4-[6,6-dimethyl-4-oxo-3-(phenylamino)-4,5,6,7-tetrahydro-1H-indol-2-yl]pyridin-2-yl}-N-methylacetamide] | 6.74
CC1(C)CC(=O)c2c([nH]c(-c3ccncc3)c2Nc2cccc(N)c2)C1 [Example 65, 3-[(3-aminophenyl)amino]-6,6-dimethyl-2-(pyridin-4-yl)-1,5,6,7-tetrahydro-4H-indol-4-one] | 0.525
CC1(C)CC(=O)c2c(Nc3ccccc3)c(-c3ccncc3)n(CCO)c2C1 [Example 184, 1-(2-hydroxyethyl)-6,6-dimethyl-3-(phenylamino)-2-(pyridin-4-yl)-1,5,6,7-tetrahydro-4H-indol-4-one] | 0.2
NC(=O)CCn1c2c(c(Nc3ccccc3)c1-c1ccncc1)C(=O)CCC2 [Example 174, 3-[4-oxo-3-(phenylamino)-2-(pyridin-4-yl)-4,5,6,7-tetrahydro-1H-indol-1-yl]propanamide] | 0.22
CC1(C)CC(=O)c2c([nH]c(-c3ccnc(NC(=O)C(F)F)c3)c2Nc2ccccc2)C1 [Example 166, N-{4-[6,6-dimethyl-4-oxo-3-(phenylamino)-4,5,6,7-tetrahydro-1H-indol-2-yl]pyridin-2-yl}-2,2-difluoroacetamide] | 1.69
COc1cc(C(=O)Nc2cc(-c3[nH]c4c(c3Nc3ccccc3)C(=O)CC(C)(C)C4)ccn2)ccc1F [Example 474, N-{4-[6,6-dimethyl-4-oxo-3-(phenylamino)-4,5,6,7-tetrahydro-1H-indol-2-yl]pyridin-2-yl}-4-fluoro-3-methoxybenzamide] | 0.00863
O=C1CCCc2c1c(Nc1ccccc1)c(-c1ccncc1)n2CCCO [Example 175, 1-(3-hydroxypropyl)-3-(phenylamino)-2-(pyridin-4-yl)-1,5,6,7-tetrahydro-4H-indol-4-one] | 0.217
O=C1CCCc2[nH]c(-c3ccnc(NC(=O)C4CCC4)c3)c(Nc3ccccc3)c21 [Example 229, N-{4-[4-oxo-3-(phenylamino)-4,5,6,7-tetrahydro-1H-indol-2-yl]pyridin-2-yl}cyclobutanecarboxamide] | 0.0194
CC1(C)CC(=O)c2c([nH]c(-c3ccncc3)c2Nc2cnccc2CO)C1 [Example 510, 3-{[4-(hydroxymethyl)pyridin-3-yl]amino}-6,6-dimethyl-2-(pyridin-4-yl)-1,5,6,7-tetrahydro-4H-indol-4-one] | 0.0253
CC1CC(=O)c2c(Nc3ccccc3)c(-c3ccncc3)n(C)c2C1 (stereo not drawn) [Example 178, 1,6-dimethyl-3-(phenylamino)-2-(pyridin-4-yl)-1,5,6,7-tetrahydro-4H-indol-4-one] | 0.0996
CC1(C)CC(=O)c2c([nH]c(-c3ccncc3)c2Nc2ccccc2C#N)C1 [Example 146, 2-{[6,6-dimethyl-4-oxo-2-(pyridin-4-yl)-4,5,6,7-tetrahydro-1H-indol-3-yl]amino}benzonitrile] | 0.0482
CC1(C)CC(=O)c2c([nH]c(-c3ccncc3)c2Nc2cccc(C#N)c2)C1 [Example 79, 3-{[6,6-dimethyl-4-oxo-2-(pyridin-4-yl)-4,5,6,7-tetrahydro-1H-indol-3-yl]amino}benzonitrile] | 0.133
CC1(C)CC(=O)c2c([nH]c(-c3ccnc(Cl)c3Cl)c2Nc2ccccc2)C1 [Example 214, 2-(2,3-dichloropyridin-4-yl)-6,6-dimethyl-3-(phenylamino)-1,5,6,7-tetrahydro-4H-indol-4-one] | 0.0676
CC1(C)CC(=O)c2c([nH]c(-c3ccncc3OC(C)(C)C)c2Nc2ccccc2)C1 [Example 407, 2-(3-tert-butoxypyridin-4-yl)-6,6-dimethyl-3-(phenylamino)-1,5,6,7-tetrahydro-4H-indol-4-one] | 0.6
CC1(C)CC(=O)c2c([nH]c(-c3ccncc3)c2Nc2ccc([N+](=O)[O-])cc2)C1 [Example 90, 6,6-dimethyl-3-[(4-nitrophenyl)amino]-2-(pyridin-4-yl)-1,5,6,7-tetrahydro-4H-indol-4-one] | 0.509

Reference: US10428044B2, “3-amino-1,5,6,7-tetrahydro-4H-indol-4-ones” (Bayer Pharma Aktiengesellschaft, priority 2014, dated 2019)
